Test results as given in ChEMBL document CHEMBL5223191, “Discovery of a Novel Series of Imidazopyrazine Derivatives as Potent SHP2 Allosteric Inhibitors” (ACS Med Chem Lett, 2023).
≈ marks a conversion by molar mass, not a printed value. Each block holds one compound with its values, some of them ahead of it.

Assays:
[1] = molecular target: T1, Tyrosine-protein phosphatase non-receptor type 11 (Homo sapiens, UniProt Q06124); experiment: Allosteric inhibition of IRS1 peptide-activated human recombinant SHP2 (Met1 to Leu525) expressed in Escherichia coli assessed as inhibition of dephosphorylation of 6,8-difluoro-4-methylumbelliferyl phosphate using DiFMUP as substrate preincubated with enzyme for 30 mins followed by substrate addition and measured after 30 mins by DiFMUP assay
T1 sequence (Q06124 whole entry): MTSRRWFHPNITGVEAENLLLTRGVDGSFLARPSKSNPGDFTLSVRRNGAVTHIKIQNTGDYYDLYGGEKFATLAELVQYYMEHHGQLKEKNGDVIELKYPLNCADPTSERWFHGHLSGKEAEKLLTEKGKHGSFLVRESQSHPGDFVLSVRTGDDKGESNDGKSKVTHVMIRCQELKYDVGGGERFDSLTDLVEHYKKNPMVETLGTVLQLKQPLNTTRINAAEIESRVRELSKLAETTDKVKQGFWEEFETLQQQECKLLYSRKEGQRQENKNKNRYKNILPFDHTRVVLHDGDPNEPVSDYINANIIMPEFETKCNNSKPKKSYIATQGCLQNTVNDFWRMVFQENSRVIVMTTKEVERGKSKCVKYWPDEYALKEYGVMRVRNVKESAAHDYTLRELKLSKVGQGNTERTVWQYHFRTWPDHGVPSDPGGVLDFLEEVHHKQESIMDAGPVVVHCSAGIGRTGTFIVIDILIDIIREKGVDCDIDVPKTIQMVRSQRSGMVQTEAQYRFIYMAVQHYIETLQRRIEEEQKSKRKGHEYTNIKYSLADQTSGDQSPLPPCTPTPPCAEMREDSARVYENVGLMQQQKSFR

KYSE-520 cell line = experiment: Antiproliferative activity against EGFR-amplified human KYSE-520 cells assessed as inhibition of cell proliferation incubated for 72 hrs by CellTiter-Glo reagent based luminescence assay; assay type: functional; conditions: KYSE-520, 72 h
[2] = molecular target: T1, Tyrosine-protein phosphatase non-receptor type 11; experiment: Allosteric inhibition of SHP2 in human KYSE-520 cells assessed as inhibition of ERK phosphorylation incubated for 2 hrs by TR-FRET assay; assay type: cell-based, KYSE-520 cell line
[3] = molecular target: Voltage-gated inwardly rectifying potassium channel KCNH2 (Homo sapiens, UniProt Q12809); experiment: Displacement of E-4031 from hERG by fluorescence polarization assay; assay type: toxicity
[4] = Apparent passive permeability of the compound in phosphate buffer saline at pH 7.4 at 5 uM incubated for 4 hrs by PAMPA assay; assay type: ADME
[5] = Half life in BALB/c mouse at 1 mg/kg, iv measured for 24 hrs by LC-MS/MS analysis; assay type: ADME, organism-based; conditions: in vivo
[6] = Intrinsic clearance in BALB/c mouse at 1 mg/kg, iv measured for 24 hrs by LC-MS/MS analysis; assay type: ADME, organism-based; conditions: in vivo
[7] = Volume of distribution at steady state in Sprague-Dawley rat at 0.5 mg/kg, iv measured for 24 hrs by LC-MS/MS analysis; assay type: ADME, organism-based; conditions: in vivo, read-out: Vdss
[8] = Half life in Sprague-Dawley rat at 0.5 mg/kg, iv measured for 24 hrs by LC-MS/MS analysis; assay type: ADME, organism-based; conditions: in vivo
[9] = Oral bioavailability in BALB/c mouse at 50 mg/kg measured for 24 hrs by LC-MS/MS analysis; assay type: ADME, organism-based; conditions: in vivo
[10] = Volume of distribution at steady state in BALB/c mouse at 1 mg/kg, iv measured for 24 hrs by LC-MS/MS analysis; assay type: ADME, organism-based; conditions: in vivo, read-out: Vdss
[11] = Intrinsic clearance in Sprague-Dawley rat at 0.5 mg/kg, iv measured for 24 hrs by LC-MS/MS analysis; assay type: ADME, organism-based; conditions: in vivo
[12] = Intrinsic clearance in human liver microsomes at 1 uM measured for 60 mins in presence of NADPH by LC-MS/MS analysis; assay type: ADME, Microsome; conditions: read-out: CLH
[13] = Drug metabolism in human liver microsomes assessed as oxidised metabolite formation at 1 uM measured after 60 mins in presence of NADPH by MetID study analysis; assay type: ADME, Microsome; conditions: 1 h
[14] = Drug metabolism in C57BL/6 mouse liver microsomes assessed as oxidised metabolite formation at 1 uM measured after 60 mins in presence of NADPH by MetID study analysis; assay type: ADME, Microsome; conditions: 1 h
[15] = Drug metabolism in human liver microsomes assessed as 1'-(6-((2-(trifluoromethyl)pyridin-3-yl)sulfonyl)-1H-imidazo[4,5-b]pyrazin-2-yl)-1,3-dihydrospiro[indene-2,4'-piperidin]-1-amine formation at 1 uM measured after 60 mins in presence of NADPH by MetID study analysis; assay type: ADME, Microsome
[16] = Kinetic solubility of the compound in phosphate buffer saline at pH 7.4 at 200 uM by LC-UV analysis; assay type: physicochemical; conditions: read-out: Kinetic_solubility
[17] = molecular target: T1, Tyrosine-protein phosphatase non-receptor type 11; experiment: Binding affinity to N-terminal biotinylated AviTag-G4SG4S-tagged recombinant SHP2 (1 to 525 residues) (unknown origin) by SPR analysis
[18] = Drug metabolism in C57BL/6 mouse liver microsomes assessed as 1'-(6-((2-(trifluoromethyl)pyridin-3-yl)sulfonyl)-1H-imidazo[4,5-b]pyrazin-2-yl)-1,3-dihydrospiro[indene-2,4'-piperidin]-1-amine formation at 1 uM measured after 60 mins in presence of NADPH by MetID study analysis; assay type: ADME, Microsome
[19] = Intrinsic clearance in C57BL/6 mouse liver microsomes at 1 uM measured for 60 mins in presence of NADPH by LC-MS/MS analysis; assay type: ADME, Microsome; conditions: read-out: CLH

Voltage-gated inwardly rectifying potassium channel KCNH2, sequence (Q12809 whole entry): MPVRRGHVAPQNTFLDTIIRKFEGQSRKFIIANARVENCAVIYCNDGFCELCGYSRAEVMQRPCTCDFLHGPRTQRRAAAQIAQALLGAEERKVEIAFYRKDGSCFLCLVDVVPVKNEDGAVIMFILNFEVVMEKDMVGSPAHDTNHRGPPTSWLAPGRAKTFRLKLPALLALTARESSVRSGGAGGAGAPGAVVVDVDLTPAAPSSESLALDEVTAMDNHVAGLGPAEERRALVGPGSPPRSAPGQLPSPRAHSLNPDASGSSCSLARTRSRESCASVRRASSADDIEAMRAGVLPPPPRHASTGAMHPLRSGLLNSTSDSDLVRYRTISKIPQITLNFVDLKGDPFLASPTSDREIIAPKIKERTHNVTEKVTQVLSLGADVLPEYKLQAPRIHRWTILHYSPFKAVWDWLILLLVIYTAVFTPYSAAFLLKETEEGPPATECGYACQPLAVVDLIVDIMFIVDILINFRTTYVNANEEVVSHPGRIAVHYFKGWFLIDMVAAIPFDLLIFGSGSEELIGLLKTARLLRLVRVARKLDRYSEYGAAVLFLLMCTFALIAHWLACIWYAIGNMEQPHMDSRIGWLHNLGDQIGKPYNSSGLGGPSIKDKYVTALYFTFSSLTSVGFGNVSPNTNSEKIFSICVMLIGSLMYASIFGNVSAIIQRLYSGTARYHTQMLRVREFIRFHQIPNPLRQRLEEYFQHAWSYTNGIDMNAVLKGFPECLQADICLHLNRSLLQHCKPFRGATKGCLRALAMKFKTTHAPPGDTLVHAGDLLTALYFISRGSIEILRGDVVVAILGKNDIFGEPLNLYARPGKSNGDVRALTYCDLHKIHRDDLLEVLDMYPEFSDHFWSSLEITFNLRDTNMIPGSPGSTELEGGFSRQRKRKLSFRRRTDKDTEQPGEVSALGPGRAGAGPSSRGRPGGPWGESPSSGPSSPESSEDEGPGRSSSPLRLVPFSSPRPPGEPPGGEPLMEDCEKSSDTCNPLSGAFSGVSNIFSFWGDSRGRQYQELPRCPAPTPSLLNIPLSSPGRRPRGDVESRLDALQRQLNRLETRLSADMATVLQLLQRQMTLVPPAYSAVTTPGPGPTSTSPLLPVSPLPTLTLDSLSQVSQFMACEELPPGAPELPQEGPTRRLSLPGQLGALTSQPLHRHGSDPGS

IC50 [1]: 887 nM
Structure (SMILES): CC1(N)CCN(c2nc3nc(Sc4cccnc4C(F)(F)F)cnc3s2)CC1

IC50 [1]: 47 nM
Structure (SMILES): CC1(N)CCN(c2nc3ncc(Sc4cccc(Cl)c4Cl)nc3[nH]2)CC1

IC50 [1]: 1180 nM
Structure (SMILES): CNC1CCN(c2nc3nc(Sc4cccnc4C(F)(F)F)cnc3[nH]2)CC1

IC50 [1]: 664 nM
Structure (SMILES): NC1CCN(c2nc3nc(Sc4cccnc4C(F)(F)F)cnc3[nH]2)CC1

IC50 [1]: 290 nM
Structure (SMILES): N[C@@H]1CCCC12CCN(c1nc3nc(Sc4cccnc4C(F)(F)F)cnc3[nH]1)CC2

IC50 [1]: 521 nM
Structure (SMILES): CC1(N)CCN(c2nc3ncc(Oc4cccc(Cl)c4Cl)nc3[nH]2)CC1

IC50 [1]: 808 nM
Structure (SMILES): CC1(N)CCN(c2nc3cnc(Sc4cccnc4C(F)(F)F)nc3[nH]2)CC1

IC50 [1]: 1360 nM
Structure (SMILES): Cn1c(N2CCC(C)(N)CC2)nc2ncc(Sc3cccnc3C(F)(F)F)nc21

Structure (SMILES): N[C@@H]1c2ccccc2CC12CCN(c1nc3nc(Sc4ccncc4Cl)cnc3[nH]1)CC2
IC50 [1]: 3 nM
EC50 (KYSE-520 cell line): 325 nM
EC50 [2]: 51 nM
IC50 [3]: 3100 nM

IC50 [1]: > 64000 nM
Structure (SMILES): CC1(N)CCN(c2nc3ncc(Sc4cccnc4C(F)(F)F)nc3s2)CC1

IC50 [1]: 436 nM
Structure (SMILES): Cc1nc2nc(N3CCC(C)(N)CC3)[nH]c2nc1Sc1cccc(Cl)c1Cl

Structure (SMILES): CNc1nccc(Sc2cnc3[nH]c(N4CCC5(CC4)Cc4ccccc4[C@H]5N)nc3n2)c1Cl
Papp at 4 h, 5 µM [4]: 0.02 ×10⁻⁶ cm/s
IC50 [1]: 6 nM
EC50 (KYSE-520 cell line): 520 nM
half-life [5]: > 4 h
CL [6]: 14 mL/min/kg
Vd [7]: 1.9 L/kg
half-life [8]: > 2.3 h
bioavailability [9]: 7%
EC50 [2]: 37 nM
Vd [10]: 1.8 L/kg
IC50 [3]: 4200 nM
CL [11]: 17 mL/min/kg

IC50 [1]: 797 nM
Structure (SMILES): CC1(N)CCN(c2nc3ncc(-c4cccc(Cl)c4Cl)nc3[nH]2)CC1

IC50 [1]: 142 nM
Structure (SMILES): CC1(N)CCN(c2cnc(Sc3cccnc3C(F)(F)F)c(N)n2)CC1

Structure (SMILES): N[C@@H]1c2ccccc2CC12CCN(c1nc3nc(Sc4cccnc4C(F)(F)F)cnc3[nH]1)CC2
CLint scaled at 1 µM [12]: 74 mL/min/kg
Papp at 4 h, 5 µM [4]: 0.027 ×10⁻⁶ cm/s
Drug metabolism [13]: Metabolite_Detected
IC50 [1]: 5 nM
Drug metabolism [14]: Metabolite_Detected
EC50 (KYSE-520 cell line): 547 nM
Vd [7]: 0.4 L/kg
Drug metabolism [15]: Metabolite_Detected
solubility kinetic at 200 µM [16]: 154 µM (≈ 76.6 µg/mL)
half-life [8]: 0.4 h
Kd [17]: 0.6 nM
EC50 [2]: 42 nM
Drug metabolism [18]: Metabolite_Detected
CLint scaled at 1 µM [19]: 297 mL/min/kg
IC50 [3]: 1800 nM
CL [11]: 24 mL/min/kg

Structure (SMILES): Nc1nccc(Sc2cnc3[nH]c(N4CCC5(CC4)Cc4ccccc4[C@H]5N)nc3n2)c1Cl
IC50 [1]: 4 nM
EC50 (KYSE-520 cell line): 598 nM
EC50 [2]: 75 nM
IC50 [3]: 900 nM

IC50 [1]: 409 nM
Structure (SMILES): Cn1c(N2CCC(C)(N)CC2)nc2nc(Sc3cccnc3C(F)(F)F)cnc21

IC50 [1]: > 16000 nM
Structure (SMILES): CC1(N)CCN(c2nc3ccc(Sc4cccnc4C(F)(F)F)cc3[nH]2)CC1

IC50 [1]: 74 nM
EC50 [2]: 1760 nM
Structure (SMILES): CC1(N)CCN(c2nc3ncc(Sc4cccnc4C(F)(F)F)nc3[nH]2)CC1

IC50 [1]: 435 nM
Structure (SMILES): NC1CCCN(c2nc3nc(Sc4cccnc4C(F)(F)F)cnc3[nH]2)C1 (stereo unspecified)

IC50 [1]: > 33000 nM
Structure (SMILES): CC1(N)CCN(c2nc3ncc(Sc4cccnc4C(F)(F)F)cc3[nH]2)CC1

IC50 [1]: 64 nM
EC50 [2]: 2850 nM
Structure (SMILES): C[C@@H]1OCC2(CCN(c3nc4nc(Sc5cccnc5C(F)(F)F)cnc4[nH]3)CC2)[C@@H]1N
